Paper PMC3510187, “1-Anilino-8-Naphthalene Sulfonate (ANS) Is Not a Desirable Probe for Determining the Molten Globule State of Chymopapain” (PLoS ONE, 2012)

Biological target: T1, chymopapain (Carica papaya, UniProt P14080)
T1 construct: native mature enzyme from papaya latex, commercial (Sigma C8526), dialysed; monomer; acid-unfolded states in the assay
Test: isothermal titration calorimetry (two sets of independent sites)
Settings: read-out: High affinity binding site / K1 (M^-1)
Source text: isothermal titration calorimetry (two sets of independent sites) on chymopapain

T1 sequence (P14080 135-352): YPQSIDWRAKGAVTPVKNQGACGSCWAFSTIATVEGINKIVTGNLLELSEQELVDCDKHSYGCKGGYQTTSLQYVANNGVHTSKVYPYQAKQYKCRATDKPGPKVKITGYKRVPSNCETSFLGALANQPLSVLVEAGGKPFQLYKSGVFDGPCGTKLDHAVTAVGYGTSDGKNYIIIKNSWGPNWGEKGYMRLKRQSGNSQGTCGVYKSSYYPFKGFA

Compound `O=S(=O)(O)c1cccc2cccc(Nc3ccccc3)c12` [1-anilino-8-naphthalene sulfonate] has a Kd of 2.94 µM.
